Experimental findings from patent US12441762B2, “Hepatitis c virus NS3/4A protease inhibitors” (priority 2019, dated 2025) are described below.

What all share (assay): biochemical
The target in test [1] is T1, wild-type HCV NS3/4A protease (GT1a) (Hepatitis C virus genotype 1a, UniProt P27958, C1185S).
T1 construct: His-tag (cleaved yes); made in house; host or cells: Escherichia coli BL21(DE3), PET28a vector
In kind it is biochemical. The procedure: (§1) The HCV GT1a NS3/4A protease gene described in the Bristol Myers Squibb patent was synthesized by GenScript and cloned into a PET28a expression vector. Cys159 was mutated to a serine residue to prevent disulfide bond formation and facilitate crystallization. The D168A gene was engineered using the site-directed mutagenesis protocol from Stratagene. Protein expression and purification were carried out as previously described.
(§2) Km constants for GT1 and D168A protease were previously determined. […] Inner filter effect corrections were applied to the initial velocities (Vo) at each substrate concentration. Vo versus substrate concentration graphs were globally fit to the Michaelis-Menten equation to obtain the Km value.
(§3) For each assay, 2 nM of NS3/4A protease (GT1a and D168A) was pre-incubated at room temperature for 1 h with increasing concentration of inhibitors in assay buffer (50 mM Tris, 5% glycerol, 10 mM DTT, 0.6 mM LDAO, and 4% dimethyl sulfoxide, pH 7.5). Inhibition assays were performed in non-binding surface 96-well black half-area plates (Corning) in a reaction volume of 60 μL. […] Three independent data sets were collected for each inhibitor with each protease construct.

Test [2] deals with HCV NS3/4A protease D168A variant. In kind it is biochemical, Hepatitis C virus. Particulars: Table S1, value in parentheses. The procedure:
as §1, §2, §3

The target of test [3] is T2, HCV NS3/4A protease D168A variant (Hepatitis C virus genotype 1a, UniProt P27958, C1185S/D1194A).
T2 construct: His-tag (cleaved yes); made in house; host or cells: Escherichia coli BL21(DE3), PET28a vector
Format: biochemical. As to the method: as §1, §2, §3

Broadly, the Ki is a dissociation constant, usually derived from enzyme kinetics or from competition with a known ligand.

T1 sequence (P27958 1027-1208 C1185S): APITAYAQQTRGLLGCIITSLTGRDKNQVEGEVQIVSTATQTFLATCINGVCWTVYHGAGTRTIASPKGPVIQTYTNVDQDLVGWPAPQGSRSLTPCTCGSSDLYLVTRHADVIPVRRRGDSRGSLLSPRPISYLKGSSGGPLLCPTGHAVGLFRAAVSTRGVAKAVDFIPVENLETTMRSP
T2 sequence (P27958 1027-1208 C1185S/D1194A): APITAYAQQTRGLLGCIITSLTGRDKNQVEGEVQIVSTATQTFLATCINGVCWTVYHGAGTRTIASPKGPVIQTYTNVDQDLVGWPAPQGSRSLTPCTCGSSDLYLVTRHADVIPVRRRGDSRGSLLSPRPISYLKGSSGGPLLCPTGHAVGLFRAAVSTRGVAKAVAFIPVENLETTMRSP

Regarding `COc1ccc2nc(C)c(O[C@@H]3C[C@H]4C(=O)N[C@]5(C(=O)NS(=O)(=O)C6(C)CC6)C[C@H]5/C=C\CCCCC[C@H](NC(=O)[C@@H](NC(C)=O)C(C)C)C(=O)N4C3)nc2c1` [Inhibitor P4P5-1A, (2R,6S,13aS,14aR,16aS,Z)-6-((S)-2-Acetamido-3-methylbutanamido)-2-((7-methoxy-3-methylquinoxalin-2-yl)oxy)-N-((1-methylcyclopropyl)sulfonyl)-5,16-dioxo-1,2,3,6,7,8,9,10,11,13a,14,15,16,16a-tetradecahydrocyclopropa[e]pyrrolo[1,2-a][1,4]diazacyclopentadecine-14a(5H)-carboxamide], the inhibition constant (Ki) in test [1] amounted to 11.1 ± 0.5 nM; in test [3], 141 ± 18 nM. Moreover, the “Fold Change of D168A Ki with respect to GT1a wild-type” value in test [2] is “(13) fold”.
The corresponding values for `COC(=O)N[C@H](C(=O)N[C@H]1CCCCC/C=C\[C@@H]2C[C@@]2(C(=O)NS(=O)(=O)C2(C)CC2)NC(=O)[C@@H]2C[C@@H](Oc3nc4cc(OC)ccc4nc3C)CN2C1=O)C(C)C` [Inhibitor P4P5-1B, Methyl ((S)-1-(((2R,6S,13aS,14aR,16aS,Z)-2-((7-methoxy-3-methylquinoxalin-2-yl)oxy)-14a-(((1-methylcyclopropyl)sulfonyl)carbamoyl)-5,16-dioxo-1,2,3,5,6,7,8,9,10,11,13a,14,14a,15,16,16a-hexadecahydrocyclopropa[e]pyrrolo[1,2-a][1,4]diazacyclopentadecin-6-yl)amino)-3-methyl-1-oxobutan-2-yl)carbamate] are 13 ± 0.8 nM, 102 ± 6.8 nM and “(8) fold”.
As for `COc1ccc2nc(C)c(O[C@@H]3C[C@H]4C(=O)N[C@]5(C(=O)NS(=O)(=O)C6(C)CC6)C[C@H]5/C=C\CCCCC[C@H](NC(=O)[C@@H](NC(C)=O)C(C)(C)C)C(=O)N4C3)nc2c1` [Inhibitor P4P5-2A, (2R,6S,13aS,14aR,16aS,Z)-6-((S)-2-Acetamido-3,3-dimethylbutanamido)-2-((7-methoxy-3-methylquinoxalin-2-yl)oxy)-N-((1-methylcyclopropyl)sulfonyl)-5,16-dioxo-1,2,3,6,7,8,9,10,11,13a,14,15,16,16a-tetradecahydrocyclopropa[e]pyrrolo[1,2-a][1,4]diazacyclopentadecine-14a(5H)-carboxamide], the inhibition constant (Ki) in test [1] worked out at 23.9 ± 1.7 nM; in test [3], 215 ± 16 nM. The “Fold Change of D168A Ki with respect to GT1a wild-type” value in test [2] is listed as “(9) fold”.
The corresponding values for `COC(=O)N[C@H](C(=O)N[C@H]1CCCCC/C=C\[C@@H]2C[C@@]2(C(=O)NS(=O)(=O)C2(C)CC2)NC(=O)[C@@H]2C[C@@H](Oc3nc4cc(OC)ccc4nc3C)CN2C1=O)C(C)(C)C` [Inhibitor P4P5-2B, Methyl ((S)-1-(((2R,6S,13aS,14aR,16aS,Z)-2-((7-methoxy-3-methylquinoxalin-2-yl)oxy)-14a-(((1-methylcyclopropyl)sulfonyl)carbamoyl)-5,16-dioxo-1,2,3,5,6,7,8,9,10,11,13a,14,14a,15,16,16a-hexadecahydrocyclopropa[e]pyrrolo[1,2-a][1,4]diazacyclopentadecin-6-yl)amino)-3,3-dimethyl-1-oxobutan-2-yl)carbamate] are 29.5 ± 1.9 nM, 201 ± 15 nM and “(8) fold”.
`CCC(CC)OC(=O)N[C@H]1CCCCC/C=C\[C@@H]2C[C@@]2(C(=O)NS(=O)(=O)C2(C)CC2)NC(=O)[C@@H]2C[C@@H](Oc3nc4cc(OC)ccc4nc3C(F)(F)F)CN2C1=O` [NR02-52, Pentan-3-yl ((2R,6S,13aS,14aR,16aS,Z)-2-((7-methoxy-3-(trifluoromethyl)quinoxalin-2-yl)oxy)-14a-(((1-methylcyclopropyl)sulfonyl)carbamoyl)-5,16-dioxo-1,2,3,5,6,7,8,9,10,11,13a,14,14a,15,16,16a-hexadecahydrocyclopropa[e]pyrrolo[1,2-a][1,4]diazacyclopentadecin-6-yl)carbamate]: the Ki stood at 4.6 ± 0.66 nM in test [1] and 20.9 ± 2.1 nM in test [3].
